Key:
[1] = system: 030418-induced respiratory depression rats; conditions: rat, in vivo
[2] = system: 030418-induced acute death in mice; parameters: species or system KM mice; conditions: mouse, in vivo
[3] = mouse, in vivo
[4] = mouse, in vivo; remark: listed apart in the source
[5] = system: field EPSP in the rat dentate gyrus; conditions: in vivo, ip; cited from earlier work
[6] = system: hyperactivity induced by d-amphetamine; conditions: in vivo, ip, 2 mg/kg; cited from earlier work

| SMILES | antagonism toward the decreased respiratory rate and ventilation caused by 030418 [1] | effect on respiratory rate and ventilation compared with Compound a [1] | survival rate of mice [2] | molar dose for the same anti-lethal effect, relative to Compound a ([2]; sc, 15 mg/kg) | (AUC0-t)prodrug/(AUC0-t)prototype drug [3] | (AUC0-t)prodrug group/(AUC0-t)prototype drug group [4] | increase in the amplitude of the field EPSP [5] [%] | inhibition of hyperactivity [6] [%] | Death rate [2] [%] |
| --- | --- | --- | --- | --- | --- | --- | --- | --- | --- |
| C/C(=C(\CCOC(=O)CCCC(=O)OC1CCC(N(C)C(=O)c2ccc3nonc3c2)CC1)SSCCC(C)C)N(C)C=O (stereo not drawn) [Compound 15, Pentanedioic acid anti-4-[(benzo[c][1,2,5]oxadiazole-5-carbonyl)-methyl-amino]-cyclohexyl ester 3-isopentyldisulfanyl-4-(formyl-methyl-amino)-pent-3-enyl ester] | dose-dependent antagonism | same effect as Compound a (10 mg/kg) | increase the survival rate of mice in a dose-dependent manner | one-eighth | 2.23 | 0.41 |  |  |  |
| CN(C(=O)c1ccc2nonc2c1)C1CCC(O)CC1 (stereo not drawn) [Compound a, N-(anti-4-hydroxycyclohexyl)-N-methylbenzo[c][1,2,5]oxadiazol-5-yl-carboxamide, reference compound] |  |  |  |  |  |  | 21 | 100 | 20 |

Source: patent US10759822B2 (priority 2016, dated 2020)
